Source: patent US10206902B2, “Mono- or di-substituted indoles as dengue viral replication inhibitors” (priority 2014, dated 2019)

How the values were obtained:
Type in all cases: cell-based
[1] = system: DENV-4 strain H241; assay: Tetravalent RT-qPCR assay Protocol A, serotype 4 H241; details: Dengue virus, DENV4, 72 h, RT-qPCR serotype 4 H241, Vero cells, day 3
Protocol: (§1) The antiviral activity of the compounds of the invention was tested against DENV-1 strain TC974#666 (NCPV), DENV-2 strain 16681, DENV-3 strain H87 (NCPV) and DENV-4 strains H241 (NCPV) and EDEN (SG/06K2270DK1/2005; GenBank accession number QG398256) in a RT-qPCR assay. Therefore, Vero cells were infected with either DENV-1, or -2, or -3, or -4 in the presence or absence of test compounds. At day 3 post-infection, the cells were lysed and cell lysates were used to prepare cDNA of both a viral target (the 3′UTR of DENV; table 2) and a cellular reference gene (β-actin, table 2). Subsequently, a duplex real time PCR was performed on a Lightcycler480 instrument. The generated Cp value is inversely proportional to the amount of RNA expression of these targets. Inhibition of DENV replication by a test compound result in a shift of Cp's for the 3′UTR gene. On the other hand, if a test compound is toxic to the cells, a similar effect on β-actin expression will be observed. The comparative ΔΔCp method is used to calculate EC50, which is based on the relative gene expression of the target gene (3′UTR) normalized with the cellular housekeeping gene (β-actin). In addition, CC50 values were determined based on the Cp values acquired for the housekeeping gene β-actin.
(§2) The culture medium consisted of minimal essential medium supplemented with 2% of heat-inactivated fetal calf serum, 0.04% gentamycin (50 mg/mL) and 2 mM of L-glutamine. Vero cells, obtained from ECACC, were suspended in culture medium and 75 μL/well was added in 96-well plates (10000 cells/well), which already contain the antiviral compounds. Typically, these plates contain a 4-fold serial dilution of 9 dilution steps of the test compound at 200 times the final concentration in 100% DMSO (500 nL; final concentration range: 25 μM-0.00038 μM). In addition, each plate contains wells which are assigned as virus controls (containing cells and virus in the absence of compound) and cell controls (containing cells in the absence of virus and compound). Once the cells were added in the plates, the plates were incubated in a fully humidified incubator (37° C., 5% CO2) until the next day. Then, DENV-1 strain TC974#666, DENV-2 strain 16681, DENV-3 strain H87 or DENV-4 strains H241 or EDEN were added. […] In parallel, 25 μL of culture medium was added to the cell controls. Next, the plates were incubated for 3 days in a fully humidified incubator (37° C., 5% CO2). After 3 days, the supernatant was removed from the wells and the cells were washed twice with ice-cold PBS (˜100 μL). The cell pellets within the 96-well plates were stored at −80° C. for at least 1 day. Next, RNA was extracted using the Cells-to-CT™ lysis kit, according to the manufacture's guideline (Applied Biosystems). The cell lysates can be stored at −80° C. or immediately used in the reverse transcription step. In preparation of the reverse transcription step, mix A (table 3A) was prepared and 7.57 μL/well was dispensed in a 96-well plate. After addition of 5 μL of the cell lysates, a five minute denaturation step at 75° C. was performed (table 3B). Afterwards, 7.43 μL of mix B was added (table 3C) and the reverse transcription step was initiated (table 3D) to generate cDNA.
(§3) Finally, a RT-qPCR mix was prepared, mix C (table 4A), dispensed in 96-well LightCycler qPCR plates to which 3 μL of cDNA was added and the qPCR was performed according to the conditions in table 4B on a LightCycler 480. Using the LightCycler software and an in-house LIMS system, dose response curves for each compound were calculated and the half maximal effective concentration (EC50) and the half maximal cytotoxic concentration (CO50) were determined (Tables 6-9).

[2] = system: DENV-3 strain H87; assay: Tetravalent RT-qPCR assay Protocol A, serotype 3; details: Dengue virus, DENV3, 72 h, RT-qPCR serotype 3 H87, Vero cells, day 3
Protocol: as §1, §2, §3

[3] = system: DENV-2 strain 16681; assay: Tetravalent RT-qPCR assay Protocol A, serotype 2; details: Dengue virus, DENV2, 72 h, RT-qPCR serotype 2 16681, Vero cells, day 3
Protocol: as §1, §2, §3

[4] = system: DENV-1 Djibouti strain D1/H/IMTSSA/98/606; assay: Tetravalent RT-qPCR assay Protocol B, serotype 1; details: Dengue virus, DENV1, Vero, 168 h
Protocol: Vero cells (4×10^4) were seeded in 96-well plates. […] Following a 2 hour incubation period, the cell monolayer was washed 3 times with assay medium to remove residual, non-adsorbed virus and cultures were further incubated for either 4 days (DENV-2 NGC-Tongalike) or 7 days (DENV-1 Djibouti strain D1/H/IMTSSA/98/606, DENV-3 strain H87 prototype, DENV-4 strain H241′) in the presence of the inhibitor. Supernatant was harvested and viral RNA load was determined by real-time quantitative RT-PCR. The 50% effective concentration (EC50), which is defined as the compound concentration that is required to inhibit viral RNA replication by 50%, was determined using logarithmic interpolation (Tables 7 and 8). RNA was isolated from 100 μL supernatant with the NucleoSpin 96 Virus kit (Filter Service, Duren, Germany) as described by the manufacturer. The sequences of the TaqMan primers (DENV-For, DENV-Rev; Table 5) and TaqMan probes (DENV-Probe Table 5) were selected from non-structural gene 3 (NS3) or NS5, of the respective flaviviruses using Primer Express software (version 2.0; Applied Biosystems, Lennik, Belgium). The TaqMan probe was fluorescently labelled with 6-carboxyfluorescein (FAM) at the 5′ end as the reporter dye, and with minor groove binder (MGB) at the 3′ end as the quencher (Table 5). One-step, quantitative RT-PCR was performed in a total volume of 25 μL, containing 13.9375 μL H2O, 6.25 μL master mix (Eurogentec, Seraing, Belgium), 0.375 μL forward primer, 0.375 μL reverse primer, 1 μL probe, 0.0625 μL reverse transcriptase (Eurogentec) and 3 μL sample. RT-PCR was performed using the ABI 7500 Fast Real-Time PCR System (Applied Biosystems, Branchburg, N.J., USA) using the following conditions: 30 min at 48° C. and 10 min at 95° C., followed by 40 cycles of 15 s at 95° C. and 1 min at 60° C. The data was analyzed using the ABI PRISM 7500 SDS software (version 1.3.1; Applied Biosystems). For absolute quantification, standard curves were generated using 10-fold dilutions of template preparations of known concentrations.

[5] = in vitro; details: African green monkey
Protocol: as §1, §2, §3

SMILES	EC50 [1]	EC50 [2]	EC50 [3]	EC50 [4]	CC50 at 3 days [5]
COc1cc(NC(C(=O)c2c[nH]c3cc(Cl)ccc23)c2ccc(F)cc2OC)cc(OCCO)c1 (single isomer, unassigned) [Compound 4A, 1-(6-chloro-1H-indol-3-yl)-2-(4-fluoro-2-methoxyphenyl)-2-((3-(2-hydroxyethoxy)-5-methoxyphenyl)amino)ethanone]	400 nM	140 nM	1.6 nM	27 nM	
COc1cc(NC(C(=O)c2c[nH]c3c(F)cc(C)cc23)c2ccc(F)cc2OC)cc(OCCO)c1 (single isomer, unassigned) [Compound 12B, 2-(4-fluoro-2-methoxyphenyl)-1-(7-fluoro-5-methyl-1H-indol-3-yl)-2-((3-(2-hydroxyethoxy)-5-methoxyphenyl)amino)ethanone]	290 nM	270 nM	8.1 nM	96 nM	5000 nM
COc1cc(NC(C(=O)c2c[nH]c3cc(OC)c(F)cc23)c2ccc(F)cc2OC)cc(OCCO)c1 (single isomer, unassigned) [Compound 7A, 2-(4-fluoro-2-methoxyphenyl)-1-(5-fluoro-6-methoxy-1H-indol-3-yl)-2-((3-(2-hydroxyethoxy)-5-methoxyphenyl)amino)ethanone]	470 nM	190 nM	3.4 nM	55 nM	3800 nM
COc1cc(NC(C(=O)c2c[nH]c3c(Cl)c(OC)ccc23)c2ccc(F)cc2OC)cc(OCCO)c1 (single isomer, unassigned) [Compound 8A, 1-(7-chloro-6-methoxy-1H-indol-3-yl)-2-(4-fluoro-2-methoxyphenyl)-2-((3-(2-hydroxyethoxy)-5-methoxyphenyl)amino)ethanone]	520 nM	200 nM	0.9 nM	49 nM	10000 nM
COc1cc(NC(C(=O)c2c[nH]c3c(C)c(F)ccc23)c2ccc(F)cc2OC)cc(OCCO)c1 (single isomer, unassigned) [Compound 2B, 2-(4-fluoro-2-methoxyphenyl)-1-(6-fluoro-7-methyl-1H-indol-3-yl)-2-((3-(2-hydroxyethoxy)-5-methoxyphenyl)amino)ethanone]	320 nM	110 nM	2.3 nM	41 nM	3600 nM
COc1cc(NC(C(=O)c2c[nH]c3c(F)c(F)ccc23)c2ccc(F)cc2OC)cc(OCCO)c1 (single isomer, unassigned) [Compound 5B, 1-(6,7-difluoro-1H-indol-3-yl)-2-(4-fluoro-2-methoxyphenyl)-2-((3-(2-hydroxyethoxy)-5-methoxyphenyl)amino)ethanone]	450 nM	190 nM	3.6 nM	65 nM	
COc1cc(NC(C(=O)c2c[nH]c3c(C)c(OC)ccc23)c2ccc(F)cc2OC)cc(OCCO)c1 (single isomer, unassigned) [Compound 11A, 2-(4-fluoro-2-methoxyphenyl)-2-((3-(2-hydroxyethoxy)-5-methoxyphenyl)amino)-1-(6-methoxy-7-methyl-1H-indol-3-yl)ethanone]	350 nM	85 nM	0.84 nM	23 nM	6300 nM
COc1cc(NC(C(=O)c2c[nH]c3cc(OC)c(C)cc23)c2ccc(F)cc2OC)cc(OCCO)c1 (single isomer, unassigned) [Compound 6A, 2-(4-fluoro-2-methoxyphenyl)-2-((3-(2-hydroxyethoxy)-5-methoxyphenyl)amino)-1-(6-methoxy-5-methyl-1H-indol-3-yl)ethanone]	200 nM	130 nM	1.7 nM	21 nM	
COc1cc(NC(C(=O)c2c[nH]c3c(C)c(Cl)ccc23)c2ccc(F)cc2OC)cc(OCCO)c1 (single isomer, unassigned) [Compound 3A, 1-(6-chloro-7-methyl-1H-indol-3-yl)-2-(4-fluoro-2-methoxyphenyl)-2-((3-(2-hydroxyethoxy)-5-methoxyphenyl)amino)ethanone]	240 nM	88 nM	0.79 nM	45 nM	4100 nM
COc1cc(NC(C(=O)c2c[nH]c3cc(F)ccc23)c2ccc(F)cc2OC)cc(OCCO)c1 (single isomer, unassigned) [Compound 1A, 1-(6-fluoro-1H-indol-3-yl)-2-(4-fluoro-2-methoxyphenyl)-2-((3-(2-hydroxyethoxy)-5-methoxyphenyl)amino)ethanone]	480 nM	120 nM	3.2 nM	40 nM	
COc1cc(NC(C(=O)c2c[nH]c3cc(F)c(F)cc23)c2ccc(F)cc2OC)cc(OCCO)c1 (single isomer, unassigned) [Compound 10B, 1-(5,6-difluoro-1H-indol-3-yl)-2-(4-fluoro-2-methoxy-phenyl)-2-((3-(2-hydroxyethoxy)-5-methoxyphenyl)amino)ethanone]	390 nM	130 nM	3.2 nM	52 nM	
COc1cc(NC(C(=O)c2c[nH]c3c(C)cc(F)cc23)c2ccc(F)cc2OC)cc(OCCO)c1 (single isomer, unassigned) [Compound 9B, 2-(4-fluoro-2-methoxyphenyl)-1-(5-fluoro-7-methyl-1H-indol-3-yl)-2-((3-(2-hydroxyethoxy)-5-methoxyphenyl)amino)ethanone]	390 nM	190 nM	3.2 nM	42 nM	3800 nM
